Laboratory results reported in patent publication US20230192700A1, “PYRAZOLOPYRAZINES ACTING ON CANCERS VIA INHIBITION OF CDK12” (Bayer Aktiengesellschaft, priority 2020, published 2023).

These molecules were tested against T1, CDK9/CyclinT1 (Homo sapiens, UniProt P50750) (assay: CDK9/CycT1 high ATP kinase assay (TR-FRET)). Conditions: 2 mM ATP (high ATP); median; read-out: CDK9/CyclinT1, 2 mM ATP (high ATP) IC50 - [mol/l] (median).
T1 construct: Recombinant full-length His-tagged human CDK9 and CycT1; His-tag; purchased Life Technologies PV4131; host or cells: insect cells
Format: biochemical
Method: 2.5 CDK9/CycT1 High ATP Kinase Assay
CDK9/CycT1 -inhibitory activity of compounds of the present invention at a high ATP concentration after preincubation of enzyme and test compounds was quantified employing the CDK9/CycT1 TR-FRET assay as described in the following paragraphs.
Recombinant full-length His-tagged human CDK9 and CycT1, expressed in insect cells and purified by Ni-NTA affinity chromatography, were purchased from Life Technologies (Cat. No PV4131). As substrate for the kinase reaction biotinylated peptide biotin-Ttds-YISPLKSPYKISEG (C-terminus in amide form) was used which can be purchased e.g. form the company JERINI peptide technologies (Berlin, Germany).
For the assay 50 nanoL of a 100 fold concentrated solution of the test compound in DMSO was pipetted into either a black low volume 384 well microtiter plate or a black 1536 well microtiter plate (both Greiner Bio-One, Frickenhausen, Germany), 2 microL of a solution of CDK9/CycT1 in aqueous assay buffer [50 millimol/L Tris/HCl pH 8.0, 10 millimol/L MgCl2, 1.0 millimol/L dithiothreitol, 0.1 millimol/L sodium ortho-vanadate, 0.01% (v/v) Nonidet-P40 (Sigma)] were added and the mixture was incubated for 15 min at 22° C. to allow pre-binding of the test compounds to the enzyme before the start of the kinase reaction. Then the kinase reaction was started by the addition of 3 microL of a solution of adenosine-tri-phosphate (ATP, 3.3 millimol/L=>final conc. in the 5 microL assay volume is 2 millimol/L) and substrate (1.25 micromol/L =>final conc. in the 5 microL assay volume is 0.75 micromol/L) in assay buffer and the resulting mixture was incubated for a reaction time of 25 min at 22° C. The concentration of CDK9/CycT1 was adjusted depending of the activity of the enzyme lot and was chosen appropriate to have the assay in the linear range, typical concentrations were in the range of 0.5 microg/mL. The reaction was stopped by the addition of 3 microL of a solution of TR-FRET detection reagents (0.33 micromol/L streptavidine-XL665 [Cisbio Bioassays, Codolet, France] and 1.67 nanomol/L anti-RB(pSer807/pSer811)-antibody from BD Pharmingen [#558389] and 2 nanomol/L LANCE EU-W1024 labeled anti-mouse IgG antibody [Perkin-Elmer, product no. AD0077]) in an aqueous EDTA-solution (167 millimol/L EDTA, 0.2% (w/v) bovine serum albumin in 100 millimol/L HEPES pH 7.5).
The resulting mixture was incubated 1 h at 22° C. to allow the formation of complex between the phosphorylated biotinylated peptide and the detection reagents. Subsequently the amount of phosphorylated substrate was evaluated by measurement of the resonance energy transfer from the Eu-chelate to the streptavidine-XL. Therefore, the fluorescence emissions at 620 nm and 665 nm after excitation at 350 nm was measured in a TR-FRET reader, e.g. a Pherastar (BMG Labtechnologies, Offenburg, Germany) or a Viewlux (Perkin-Elmer). The ratio of the emissions at 665 nm and at […] was taken as the measure for the amount of phosphorylated substrate. The data were normalised (enzyme reaction without inhibitor=0% inhibition, all other assay components but no enzyme=100% inhibition).

T1 sequence (P50750 whole entry): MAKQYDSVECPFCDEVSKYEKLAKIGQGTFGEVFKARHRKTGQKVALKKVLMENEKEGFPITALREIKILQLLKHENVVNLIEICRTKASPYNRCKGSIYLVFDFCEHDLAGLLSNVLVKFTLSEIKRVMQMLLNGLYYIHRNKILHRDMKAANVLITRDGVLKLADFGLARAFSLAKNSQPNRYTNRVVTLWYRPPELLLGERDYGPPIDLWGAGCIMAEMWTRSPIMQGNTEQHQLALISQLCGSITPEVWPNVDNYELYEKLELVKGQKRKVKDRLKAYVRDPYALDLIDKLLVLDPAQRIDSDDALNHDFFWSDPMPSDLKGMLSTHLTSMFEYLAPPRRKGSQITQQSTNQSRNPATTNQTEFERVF
T1 sequence (O60563 whole entry partner): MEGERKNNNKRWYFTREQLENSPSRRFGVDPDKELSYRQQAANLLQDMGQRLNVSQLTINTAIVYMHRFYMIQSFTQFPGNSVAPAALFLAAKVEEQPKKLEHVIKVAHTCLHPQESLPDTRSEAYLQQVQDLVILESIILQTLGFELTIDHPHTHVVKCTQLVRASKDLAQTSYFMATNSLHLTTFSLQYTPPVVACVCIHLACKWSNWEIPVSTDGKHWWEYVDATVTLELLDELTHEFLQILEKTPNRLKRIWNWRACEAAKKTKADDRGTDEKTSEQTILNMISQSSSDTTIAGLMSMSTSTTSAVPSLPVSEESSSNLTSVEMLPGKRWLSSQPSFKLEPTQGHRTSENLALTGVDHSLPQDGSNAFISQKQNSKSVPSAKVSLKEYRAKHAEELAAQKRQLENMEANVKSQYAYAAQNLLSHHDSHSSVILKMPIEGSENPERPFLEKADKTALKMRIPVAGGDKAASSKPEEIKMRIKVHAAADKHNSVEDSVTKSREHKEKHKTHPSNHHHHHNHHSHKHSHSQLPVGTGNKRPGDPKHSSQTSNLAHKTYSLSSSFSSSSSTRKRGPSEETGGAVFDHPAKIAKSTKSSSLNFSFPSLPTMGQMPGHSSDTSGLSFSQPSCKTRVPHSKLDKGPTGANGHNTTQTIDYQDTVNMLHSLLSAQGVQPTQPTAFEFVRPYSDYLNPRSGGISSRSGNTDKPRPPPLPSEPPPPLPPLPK

Compound	IC50
CN1CCC(n2nc(NCc3nc4ccccc4[nH]3)c3ncc(C4CC4)nc32)C1 (racemic) [Example 35, (±)-N-[(1H-benzimidazol-2-yl)methyl]-6-cyclopropyl-1-(1-methylpyrrolidin-3-yl)-1H-pyrazolo[3,4-b]pyrazin-3-amine]	> 20 µM
O=CO.c1ccc(-n2nc(NCc3nc4ccccc4[nH]3)c3ncc(C4CC4)nc32)cc1 [Example 13, formic acid—N-[(1H-benzimidazol-2-yl)methyl]-6-cyclopropyl-1-phenyl-1H-pyrazolo[3,4-b]pyrazin-3-amine (1/1)]	> 20 µM
COc1cccc2[nH]c(CNc3nn(C4CCOCC4)c4nc(C5CC5)cnc34)nc12 [Example 24, 6-cyclopropyl-N-[(4-methoxy-1H-benzimidazol-2-yl)methyl]-1-(oxan-4-yl)-1H-pyrazolo[3,4-b]pyrazin-3-amine]	> 20 µM
CC1CC(n2nc(NCc3nc4ccccc4[nH]3)c3ncc(C4CC4)nc32)CCO1 (racemic) [Example 44, (±)-cis/trans-N-[(1H-benzimidazol-2-yl)methyl]-6-cyclopropyl-1-(2-methyloxan-4-yl)-1H-pyrazolo[3,4-b]pyrazin-3-amine]	> 20 µM
CN1CCC(n2nc(NCc3nc4ccccc4[nH]3)c3ncc(C4CC4)nc32)C1 (single isomer, unassigned) [Example 79, (−) or (+)-N-[(1H-benzimidazol-2-yl)methyl]-6-cyclopropyl-1-(1-methylpyrrolidin-3-yl)-1H-pyrazolo[3,4-b]pyrazin-3-amine]	> 20 µM
CC(C)(O)CCn1nc(NCc2nc3ccccc3[nH]2)c2ncc(C3CC3)nc21 [Example 76, 4-(3-{[(1H-benzimidazol-2-yl)methyl]amino}-6-cyclopropyl-1H-pyrazolo[3,4-b]pyrazin-1-yl)-2-methylbutan-2-ol]	> 20 µM
OCC1(Cn2nc(NCc3nc4ccccc4[nH]3)c3ncc(C4CC4)nc32)CCC1 [Example 74, {1-[(3-{[(1H-benzimidazol-2-yl)methyl]amino}-6-cyclopropyl-1H-pyrazolo[3,4-b]pyrazin-1-yl)methyl]cyclobutyl}methanol]	> 20 µM
Cn1nc(NCc2nc3ccccc3[nH]2)c2ncc(C3CC3)nc21 [Example 15, N-[(1H-benzimidazol-2-yl)methyl]-6-cyclopropyl-1-methyl-1H-pyrazolo[3,4-b]pyrazin-3-amine]	> 20 µM
CC(CCN(C)C)n1nc(NCc2nc3ccccc3[nH]2)c2ncc(C3CC3)nc21 (single isomer, unassigned) [Example 64, (−) or(+)-N-[(1H-benzimidazol-2-yl)methyl]-6-cyclopropyl-1-[4-(dimethylamino)butan-2-yl]-1H-pyrazolo[3,4-b]pyrazin-3-amine]	> 20 µM
COCCn1nc(NCc2nc3ccccc3[nH]2)c2ncc(C3CC3)nc21 [Example 65, N-[(1H-benzimidazol-2-yl)methyl]-6-cyclopropyl-1-(2-methoxyethyl)-1H-pyrazolo[3,4-b]pyrazin-3-amine]	> 20 µM
Cc1cccc2[nH]c(CNc3nn(C4CCOCC4)c4nc(C5CC5)cnc34)nc12 [Example 33, 6-cyclopropyl-N-[(4-methyl-1H-benzimidazol-2-yl)methyl]-1-(oxan-4-yl)-1H-pyrazolo[3,4-b]pyrazin-3-amine]	> 20 µM

Continued, values first:

IC50	Compound
> 20 µM	CC(CCN(C)C)n1nc(NCc2nc3ccccc3[nH]2)c2ncc(C3CC3)nc21 (single isomer, unassigned) [Example 63, (+) or (−)-N-[(1H-benzimidazol-2-yl)methyl]-6-cyclopropyl-1-[4-(dimethylamino)butan-2-yl]-1H-pyrazolo[3,4-b]pyrazin-3-amine]
> 20 µM	Fc1ccc2[nH]c(CNc3nn(C4CCOCC4)c4nc(C5CC5)cnc34)nc2c1 [Example 53, 6-cyclopropyl-N-[(5-fluoro-1H-benzimidazol-2-yl)methyl]-1-(oxan-4-yl)-1H-pyrazolo[3,4-b]pyrazin-3-amine]
> 20 µM	CN1CCC(n2nc(NCc3nc4cc(C(F)(F)F)ccc4[nH]3)c3ncc(C4CC4)nc32)CC1 [Example 25, 6-cyclopropyl-1-(1-methylpiperidin-4-yl)-N-{[5-(trifluoromethyl)-1H-benzimidazol-2-yl]methyl}-1H-pyrazolo[3,4-b]pyrazin-3-amine]
> 20 µM	O[C@H]1C[C@@H](Cn2nc(NCc3nc4ccccc4[nH]3)c3ncc(C4CC4)nc32)C1 [Example 71, cis-3-[(3-{[(1H-benzimidazol-2-yl)methyl]amino}-6-cyclopropyl-1H-pyrazolo[3,4-b]pyrazin-1-yl)methyl]cyclobutan-1-ol]
> 20 µM	c1ccc2[nH]c(CNc3nn(CC4CCC4)c4nc(C5CC5)cnc34)nc2c1 [Example 75, N-[(1H-benzimidazol-2-yl)methyl]-1-(cyclobutylmethyl)-6-cyclopropyl-1H-pyrazolo[3,4-b]pyrazin-3-amine]
> 20 µM	CN1CCC(n2nc(NCc3nc4cc(Cl)c(F)cc4[nH]3)c3ncc(C4CC4)nc32)CC1 [Example 29, N-[(5-chloro-6-fluoro-1H-benzimidazol-2-yl)methyl]-6-cyclopropyl-1-(1-methylpiperidin-4-yl)-1H-pyrazolo[3,4-b]pyrazin-3-amine]
> 20 µM	CN1CCC(n2nc(NCc3nc4c(Cl)c(F)ccc4[nH]3)c3ncc(C4CC4)nc32)CC1 [Example 31, N-[(4-chloro-5-fluoro-1H-benzimidazol-2-yl)methyl]-6-cyclopropyl-1-(1-methylpiperidin-4-yl)-1H-pyrazolo[3,4-b]pyrazin-3-amine]
> 20 µM	Fc1ccc2[nH]c(CNc3nn(C4CCOCC4)c4nc(C5CC5)cnc34)nc2c1F [Example 32, 6-cyclopropyl-N-[(4,5-difluoro-1H-benzimidazol-2-yl)methyl]-1-(oxan-4-yl)-1H-pyrazolo[3,4-b]pyrazin-3-amine]
> 20 µM	CC(CCN(C)C)n1nc(NCc2nc3ccccc3[nH]2)c2ncc(C3CC3)nc21 (racemic) [Example 62, (±)-N-[(1H-benzimidazol-2-yl)methyl]-6-cyclopropyl-1-[4-(dimethylamino)butan-2-yl]-1H-pyrazolo[3,4-b]pyrazin-3-amine]
> 20 µM	OC1(Cn2nc(NCc3nc4ccccc4[nH]3)c3ncc(C4CC4)nc32)CCCC1 [Example 73, 1-[(3-{[(1H-benzimidazol-2-yl)methyl]amino}-6-cyclopropyl-1H-pyrazolo[3,4-b]pyrazin-1-yl)methyl]cyclopentan-1-ol]
> 20 µM	COc1cccc2[nH]c(CNc3nn(C4CCN(C)CC4)c4nc(C5CC5)cnc34)nc12 [Example 2, 6-cyclopropyl-N-[(4-methoxy-1H-benzimidazol-2-yl)methyl]-1-(1-methylpiperidin-4-yl)-1H-pyrazolo[3,4-b]pyrazin-3-amine]
> 20 µM	CN1CCC(n2nc(NCc3nc4cc(SC(F)(F)F)ccc4[nH]3)c3ncc(C4CC4)nc32)CC1 [Example 27, 6-cyclopropyl-1-(1-methylpiperidin-4-yl)-N-({5-[(trifluoromethyl)sulfanyl]-1H-benzimidazol-2-yl}methyl)-1H-pyrazolo[3,4-b]pyrazin-3-amine]
> 20 µM	CN1CCC(n2nc(NCc3nc4c(Br)cccc4[nH]3)c3ncc(C4CC4)nc32)CC1 [Example 20, N-[(4-bromo-1H-benzimidazol-2-yl)methyl]-6-cyclopropyl-1-(1-methylpiperidin-4-yl)-1H-pyrazolo[3,4-b]pyrazin-3-amine]
> 20 µM	CN1CCC(n2nc(NCc3nc4c(C(F)(F)F)cccc4[nH]3)c3ncc(C4CC4)nc32)CC1 [Example 7, 6-cyclopropyl-1-(1-methylpiperidin-4-yl)-N-{[4-(trifluoromethyl)-1H-benzimidazol-2-yl]methyl}-1H-pyrazolo[3,4-b]pyrazin-3-amine]
> 20 µM	O[C@H]1C[C@H](Cn2nc(NCc3nc4ccccc4[nH]3)c3ncc(C4CC4)nc32)C1 [Example 70, trans-3-[(3-{[(1H-benzimidazol-2-yl)methyl]amino}-6-cyclopropyl-1H-pyrazolo[3,4-b]pyrazin-1-yl)methyl]cyclobutan-1-ol]
